Values quoted from earlier work as cited in patent US20070003613A1, “Preparations to support maintenance of acid-alkaline balance in the human body and methods directed to using same” (priority 2005, published 2007).

Settings: second dissociation

pH at which the second H+ ion is liberated: 9.6
SMILES: NCC(=O)O [glycine]
